Like-named read-outs stand apart in the source and are kept apart here.

The test system of test [1] is A549 cells. Nature of the test: MTT cell proliferation assay, A549. It counts as cell-based. Conditions: Homo sapiens, read-out: IC50, cell proliferation, A549 cells. The method, then: Human cell lines (HEK-293, A549 and MCF-7) were seeded and maintained in a medium supplemented with DMEM along with 10% heat-inactivated fetal bovine serum (Gibco) and 1% penicillin, streptomycin solution (Gibco), cultured in a 5% CO2 humidified incubator at 37 °C. Cell cultures were maintained and trypsinized regularly, not for more than 30 passages. MTT assay was carried out to see the effect of selected hydrazone compound treatment on the viability of non-cancerous (HEK-293) and cancerous cell lines (A549 and MCF-7) as per described method.[22,24] In brief, 6000–7000 cells per well were seeded in a 96-well plate and after 24 h growth, the cells were treated with increasing concentrations (0–200 μM) of each hydrazone (final volume of 200 μL) for 48 h at 37 °C in a humidified chamber. After 48 h, MTT was added (20 μL solution from 5 mg mL^−1 stock solution prepared in phosphate buffer saline, pH 7.4) to each well and plates were further incubated for 4–5 h at 37 °C in a CO2 incubator. The supernatant was aspirated and the formazan crystals were dissolved in 150 μL of DMSO. The absorbance (A) of final products was measured using multiplate ELISA reader (BioRad) at 570 nm. The percentage of cell viability was calculated and IC50 (50% inhibitory concentration) values of each hydrazone derivative were estimated (paclitaxel was taken as a positive control for cell proliferation studies).
For orientation: Formazan colour is commonly taken as a measure of viable cells.

In test [2] the test system is MARK4 and p-tau in MCF-7 cells. Nature of the test: Immunoblotting of MARK4 and p-tau in treated MCF-7 cells. It is filed as cell-based, human. Conditions: IC50 concentration, vs control. The protocol: The compound treated cell line samples were lysed in RIPA cell lysis buffer (Thermo Fisher Scientific, USA) in an ice-cold condition using ultrasonication. Total protein was isolated and protein estimation was performed using Bicinchoninic Acid Assay (BCA-protein estimation kit). Nearly 30–40 μg of whole protein lysate was diluted with 6× Laemmli's buffer, boiled for 3–5 min and resolved using 10–12% SDS-polyacrylamide electrophoresis under reducing conditions. The resolved polypeptides were transferred to polyvinylidene fluoride (PVDF) membrane through blotting, peptide-specific primary antibodies were used for identification and horseradish peroxidase coupled conjugates were used for visualization using luminol as a chemiluminescent substrate.[40]
Next, we tried to see the inhibition potential of these molecules at the cellular level. Cells were treated with IC50 concentration of each molecule and processed for the expression studied of MARK4 and p-tau (substrate of MARK4). […] Phosphorylation of tau correspondingly decreases in the treated cells as compared to control (Fig. 1B).
(Immunoblotting shows a protein as a band on a membrane.)

Test [3] addresses T1, MARK4 (Homo sapiens, UniProt Q96L34).
T1 construct: MARK4 protein was expressed and purified by following previous protocols; made in house
T1 sequence (Q96L34 1-752): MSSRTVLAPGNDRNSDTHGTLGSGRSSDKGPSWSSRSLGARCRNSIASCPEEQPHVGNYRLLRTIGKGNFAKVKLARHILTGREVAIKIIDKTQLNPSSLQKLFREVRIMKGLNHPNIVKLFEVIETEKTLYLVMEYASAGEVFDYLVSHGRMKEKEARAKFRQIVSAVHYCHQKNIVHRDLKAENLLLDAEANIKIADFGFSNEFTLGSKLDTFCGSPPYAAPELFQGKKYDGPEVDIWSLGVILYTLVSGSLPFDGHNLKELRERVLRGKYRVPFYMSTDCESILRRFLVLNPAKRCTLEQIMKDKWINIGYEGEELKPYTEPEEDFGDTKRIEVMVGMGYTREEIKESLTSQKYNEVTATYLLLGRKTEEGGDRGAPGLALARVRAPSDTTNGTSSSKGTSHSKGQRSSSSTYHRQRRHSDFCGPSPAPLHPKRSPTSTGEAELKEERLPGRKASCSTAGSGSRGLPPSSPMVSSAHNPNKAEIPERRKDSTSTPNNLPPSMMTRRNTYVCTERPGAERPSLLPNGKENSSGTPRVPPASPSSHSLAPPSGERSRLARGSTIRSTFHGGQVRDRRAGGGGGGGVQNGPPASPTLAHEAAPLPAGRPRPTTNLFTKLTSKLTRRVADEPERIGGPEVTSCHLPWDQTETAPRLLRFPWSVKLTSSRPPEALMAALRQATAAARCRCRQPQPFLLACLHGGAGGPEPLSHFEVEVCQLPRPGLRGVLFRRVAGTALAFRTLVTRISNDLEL
Nature of the test: MARK4 ATPase enzyme inhibition assay. It counts as biochemical. The method, then: MARK4 protein was expressed and purified by following previous protocols.[27,37] The purity of the protein was further confirmed by a single band shown by SDS PAGE. ATPase assay was carried out to evaluate the enzyme activity of MARK4 in the presence of selected hydrazone derivatives. The activity of MARK4 was studied with the increasing concentration of each selected hydrazone derivative by following our published protocol.[24,38]
To further evaluate the inhibitory potential of selected compounds with MARK4, enzyme inhibition assay was performed (at a single dose of 10 μM). […] Thus, these two compounds were further selected and evaluated with MARK4 in a concentration-dependent manner. […] The percent inhibition of ATPase activity was plotted as a function of ligand concentration and used to estimate IC50 (concentration of 50% inhibition, Fig. 1A).

The test system of test [4] is MCF-7 cells. Nature of the test: Colony formation assay, MCF-7. It counts as cell-based, human. The following applies: IC50 concentration, 10–12 days, vs control. The method, then:
The colony-forming assay was performed to evaluate the effect of selected compounds on cell colonization potential of cancer cells. Briefly, cells were plated at a density of 1000–2000 (A549/MCf-7) cells per well in a six-well cell culture plate. Cells were grown for at least 24 h in cell growth medium and then incubated with IC50 concentration of selected compounds for 10–12 days at 37 °C (in a humidified 5% CO2 incubator). Control cells were treated with an equal percentage of DMSO. After 10–12 days, the cell colonies were fixed with 100% methanol and staining was performed using 0.4% crystal violet in 25% methanol. The colonies obtained was counted, plotted and compared with the controls.

[5] abbreviates: bound stated after screen at a single dose of 10 μM, read-out: IC50, MARK4 enzyme inhibition.
[6] abbreviates: cell-free, concentration-dependent, read-out: IC50, inhibition of ATPase activity of MARK4.

Regarding `Cc1cc(C)c(C=NNC(=O)c2ccc(OCCN(C)C)cc2)c(C)c1` [H19], the IC50 in test [1] (A549, 48 h) was 61500 nM; in test [3] (setting [5]), below 1000 nM; in test [3] (setting [6]), 215 nM. Moreover, in test [2], the “protein level of MARK4” value is given as “decreases”. Moreover, the “protein level of p-tau” value in test [2] is recorded as “decreases”. In test [4], the “number of colonies, MCF-7” value is listed as “significantly decreased”.

For the compound `CN(C)CCOc1ccc(C(=O)NN=Cc2ccc(Cl)cc2)cc1` [H4], the IC50 in test [1] (A549, MTT, 48 h, 0–200 μM) is 45200 nM; in test [3] (setting [5]), below 1000 nM; in test [3] (setting [6]), 149 nM. Also, in test [2], the “protein level of MARK4” value is “decreases”. In addition, the “protein level of p-tau” value in test [2] is “decreases”. The “number of colonies, MCF-7” value in test [4] is recorded as “significantly decreased”.

The record behind these values is article PMC9054212, “Discovery of 4-(2-(dimethylamino)ethoxy)benzohydrazide derivatives as prospective microtubule affinity regulating kinase 4 inhibitors” (RSC Advances, 2020).
